Target: T1, Tyrosinase from mushroom
T1 construct: gene PPO3
Assay: dopachrome absorbance at […] nm
Format: biochemical
Settings: 2 mM L-tyrosine, 0.1 M phosphate pH 6.5, 37 °C, 30 min, 150 U/mL enzyme; read-out: IC50 ± SD (μM) / Tyrosinase

Row | Structure (SMILES) | IC50 [µM]
1 | COc1ccc(C(=O)/C=C/c2ccc(O)cc2)c(O)c1CC=C(C)C [compound 2, 4-hydroxyderricin] | > 100

Target: T1, Tyrosinase from mushroom
Assay: dopachrome absorbance at […] nm
Format: biochemical
Settings: 2 mM L-tyrosine, 0.1 M phosphate pH 6.5, 37 °C, 30 min, 150 U/mL enzyme; read-out: IC50 ± SD (μM) / Tyrosinase
Remark: another data set of the same source

Row | Structure (SMILES) | IC50 [µM]
2 | CC(C)=CCc1c(O)ccc(C(=O)/C=C/c2ccc(O)cc2)c1O [compound 1, isobavachalcone] | > 100
3 | CC(C)=CCC/C(C)=C/Cc1c(O)ccc(C(=O)/C=C/c2ccc(O)cc2)c1O [compound 3, xanthoangelol] | > 100
4 | CC(C)(O)CCc1c(O[C@@H]2O[C@H](CO)[C@@H](O)[C@H](O)[C@H]2O)ccc(C(=O)/C=C/c2ccc(O)cc2)c1O [compound 4, 3′-(3-Hydroxy-3-methylbutyl)-4′-O-β-D-glucopyranosyl-4,2′-dihydroxychalcone] | 78.5 ± 3.13

Results, then the molecule that gave them:

Row | IC50 [µM] | Structure (SMILES)
5 | 28.7 ± 1.24 | COC(C)(C)CCc1c(O[C@@H]2O[C@H](CO)[C@@H](O)[C@H](O)[C@H]2O)ccc(C(=O)/C=C/c2ccc(O)cc2)c1O [compound 5, 3′-(3-O-Methyl-3-methylbutyl)-4′-O-β-D-glucopyranosyl-4,2′-dihydroxychalcone]
6 | 43.1 ± 6.74 | CC(C)=CCc1c(O[C@@H]2O[C@H](CO)[C@@H](O)[C@H](O)[C@H]2O)ccc(C(=O)/C=C/c2ccc(O)cc2)c1O [compound 6, 3′-(3-methyl-2-butenyl)-4′-O-β-D-glucopyranosyl-4,2′-dihydroxychalcone]
7 | 33.3 ± 1.16 | CCOC(C)(C)CCc1c(O[C@@H]2O[C@H](CO)[C@@H](O)[C@H](O)[C@H]2O)ccc(C(=O)/C=C/c2ccc(O)cc2)c1O [compound 7, 3′-(3-O-Ethyl-3-methylbutyl)-4′-O-β-D-glucopyranosyl-4,2′-dihydroxychalcone]
8 | 71.7 ± 9.22 | CC(C)=CCC/C(C)=C/Cc1c(O[C@@H]2O[C@H](CO)[C@@H](O)[C@H](O)[C@H]2O)ccc(C(=O)/C=C/c2ccc(O)cc2)c1O [compound 10, 4′-O-β-D-Glucopyranosyl xanthoangelol]

From PMC8871312, “Effects of Microbial Transformation on the Biological Activities of Prenylated Chalcones from Angelica keiskei” (Foods, 2022)
